Test results taken from ChEMBL document CHEMBL6134895, “Strategic Design and Optimization of Umifenovir Analogues: Balancing Antiviral Efficacy and hERG Toxicity against SARS-CoV-2” (J Med Chem, 2025).
Activity calls are given as the source filed them. No cut-off for these calls is given here.

What was measured:
[1] = system: SARS-CoV-2; assay: (§1) Antiviral activity against SARS CoV-2 Wuhan infected in African green monkey Vero E6 cells assessed as inhibition of viral replication pretreated for 15 mins followed by compound removal and induction of viral infection for 1 hr and subsequent removal of inoculum and further addition of media containing compound measured after 48 hrs by RT-qPCR analysis; type: functional, organism-based; details: Severe acute respiratory syndrome coronavirus 2, time 48.25 hrs
[2] = system: SARS-CoV-2; assay: as §1, with “virus inactivation at 10 uM” for “inhibition of viral replication”, “analysis relative to control” for “analysis”; type: functional
[3] = system: SARS-CoV-2; assay: as §1, with “virus inactivation at 1 uM” for “inhibition of viral replication”, “analysis relative to control” for “analysis”; type: functional, Severe acute respiratory syndrome coronavirus 2
[4] = system: Vero C1008; assay: Cytotoxicity against African green monkey Vero E6 cells assessed as cell viability at 5 uM incubated for 48 hrs by MTT assay; type: toxicity, cell-based; details: chlorocebus sabaeus, vero c1008, 48 h, 5 µM
[5] = system: SARS-CoV-2; assay: as §1, with “24” for “48”, “cell-based ELISA” for “RT-qPCR analysis”; type: functional, organism-based; details: for inhibition: Severe acute respiratory syndrome coronavirus 2, time 24.25 hrs; for IC50: Severe acute respiratory syndrome coronavirus 2, Wuhan, Vero C1008
[6] = system: SARS-CoV-2; assay: as §1, with “virus inactivation at 5 uM” for “inhibition of viral replication”, “analysis relative to control” for “analysis”; type: functional, Severe acute respiratory syndrome coronavirus 2; details: time 48.25 hrs
[7] = molecular target: Voltage-gated inwardly rectifying potassium channel KCNH2 (Homo sapiens, UniProt Q12809); assay: Inhibition of hERG extracted from membrane (unknown origin) incubated for 4 hrs by fluorescence polarization assay; type: toxicity, cell membranes
Voltage-gated inwardly rectifying potassium channel KCNH2, sequence (Q12809 whole entry): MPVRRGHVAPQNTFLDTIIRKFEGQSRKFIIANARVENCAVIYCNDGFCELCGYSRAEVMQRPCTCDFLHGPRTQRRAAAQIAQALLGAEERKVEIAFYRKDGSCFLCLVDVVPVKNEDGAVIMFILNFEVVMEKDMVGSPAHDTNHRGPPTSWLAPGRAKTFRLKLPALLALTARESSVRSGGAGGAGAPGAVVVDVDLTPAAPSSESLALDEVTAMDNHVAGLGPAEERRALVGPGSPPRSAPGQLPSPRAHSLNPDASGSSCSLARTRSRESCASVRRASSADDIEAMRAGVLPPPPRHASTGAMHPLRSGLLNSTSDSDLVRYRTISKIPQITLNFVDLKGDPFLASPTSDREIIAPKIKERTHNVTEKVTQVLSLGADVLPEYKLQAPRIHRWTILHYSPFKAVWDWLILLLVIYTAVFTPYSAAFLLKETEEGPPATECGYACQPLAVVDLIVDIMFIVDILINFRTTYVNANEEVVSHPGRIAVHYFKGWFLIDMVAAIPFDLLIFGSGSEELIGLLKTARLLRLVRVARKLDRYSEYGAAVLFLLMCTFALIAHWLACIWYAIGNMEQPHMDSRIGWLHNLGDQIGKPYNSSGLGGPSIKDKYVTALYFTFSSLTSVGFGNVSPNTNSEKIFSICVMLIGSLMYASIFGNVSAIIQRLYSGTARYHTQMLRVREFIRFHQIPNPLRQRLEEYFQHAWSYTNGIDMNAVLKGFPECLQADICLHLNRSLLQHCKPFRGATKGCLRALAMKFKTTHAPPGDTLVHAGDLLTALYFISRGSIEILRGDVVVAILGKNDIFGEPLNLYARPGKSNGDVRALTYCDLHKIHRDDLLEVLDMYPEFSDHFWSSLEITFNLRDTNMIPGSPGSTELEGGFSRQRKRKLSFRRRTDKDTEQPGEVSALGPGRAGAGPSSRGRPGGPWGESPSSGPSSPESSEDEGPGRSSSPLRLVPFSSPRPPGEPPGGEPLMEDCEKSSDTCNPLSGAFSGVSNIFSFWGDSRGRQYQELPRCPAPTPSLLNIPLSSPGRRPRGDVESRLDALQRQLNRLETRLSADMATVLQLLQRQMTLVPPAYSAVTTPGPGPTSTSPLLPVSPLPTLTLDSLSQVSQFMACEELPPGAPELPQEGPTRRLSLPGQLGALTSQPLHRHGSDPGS

[8] = Stability in human plasma assessed as compound remaining at 2 uM measured after 60 mins by LC-MS/MS analysis; type: ADME, cell-free; details: read-out: Stability
[9] = Stability in mouse plasma assessed as half life at 2 uM measured up to 120 mins by LC-MS/MS analysis; type: ADME, cell-free
[10] = Stability in human plasma assessed as half life at 2 uM measured up to 120 mins by LC-MS/MS analysis; type: ADME, cell-free
[11] = Stability in mouse plasma assessed as compound remaining at 2 uM measured after 60 mins by LC-MS/MS analysis; type: ADME, cell-free; details: read-out: Stability
[12] = Severe acute respiratory syndrome coronavirus 2, time 48.25 hrs

| Compound | inhibition [1] | Activity [2, 12] | Activity [4] | IC50 [5] [µM] | further results |
| --- | --- | --- | --- | --- | --- |
| CCOC(=O)c1c(CSc2ccccc2OC(F)(F)F)n(C)c2cc(Br)c(O)c(CN(C)C)c12 | Not active; No Significant Effect | Not active; No Significant Effect Observed | – | – | – |
| CCOC(=O)c1c(CSc2ccccc2OC)n(C)c2cc(Br)c(O)cc12 | Not active; No Significant Effect | Not active; No Significant Effect Observed | – | – | – |
| CCOC(=O)c1c(CSc2ccc(F)cc2)n(C)c2cc(Br)c(O)cc12 | – | – | Non-toxic | – | Activity ([3]; time 48.25 hrs): <90%; Activity ([2]; time 48.25 hrs): 99.9%; inhibition [5]: inactive |
| CCOC(=O)c1c(CSc2ccc(F)cc2)n(Cc2ccc(F)cc2)c2cc(Br)c(O)cc12 | Not active; No Significant Effect | – | Non-toxic | – | Activity [6]: >95% |
| Cn1c(CSc2ccccc2)c(C(=O)N2CCC(N3CCOCC3)CC2)c2cc(O)c(Br)cc21 | – | – | Non-toxic | 3.1 | IC50 [7]: 13 µM |
| CCOC(=O)c1c(CSc2ccc(C)cc2C)n(C)c2cc(Br)c(O)c(CN(C)C)c12 | – | – | Non-toxic | 1.5 | Activity ([3]; time 48.25 hrs): >99%; IC50 [7]: 0.65 µM; Activity [6]: >99% |
| Cn1c(CSc2ccc(F)cc2)c(C(=O)Nc2cc[nH]n2)c2cc(O)c(Br)cc21 | – | – | Non-toxic | 2.3 | IC50 [7]: > 30 µM |
| CCOC(=O)c1c(CSc2ccc(F)cc2C)n(Cc2ccc(C)cc2)c2cc(Br)c(O)cc12 | – | – | Non-toxic | 10 | Activity [3, 12]: Not active; No Significant Effect Observed; Activity [6]: >50% |
| CC(C)[N+](C)(CCOC(=O)C1c2ccccc2Oc2ccccc21)C(C)C [PROPANTHELINE] | – | – | – | – | remaining at 1 h, 2 µM [8]: 2.04%; half-life at 2 µM [9]: 52.1 min; half-life at 2 µM [10]: 21.3 min; remaining at 1 h, 2 µM [11]: 17.4% |
| CCOC(=O)c1c(CSc2c(C)cc(C)cc2C)n(C)c2cc(Br)c(O)c(CN(C)C)c12 | Not active; No Significant Effect | Not determined; No Significant Effect Observed | Non-toxic | – | – |
| CCOC(=O)c1c(CSc2ccccc2F)n(C)c2cc(Br)c(O)cc12 | Not active; No Significant Effect | – | – | – | Activity ([3]; time 48.25 hrs): <90%; inhibition [5]: inactive |
| CN1CCC(NC(=O)c2c(CSc3ccc(F)cc3)n(C)c3cc(Br)c(O)cc23)CC1 | – | – | Non-toxic | 3.8 | – |
| CCOC(=O)c1c(CSc2ccc(C)cc2C)n(Cc2ccc(C(C)(C)C)cc2)c2cc(Br)c(O)cc12 | Not active; No Significant Effect | Not active; No Significant Effect Observed | Non-toxic | – | – |
| CCOC(=O)c1c(CSc2c(C)cc(C)cc2C)n(Cc2ccc(F)cc2)c2cc(Br)c(O)cc12 | – | – | Non-toxic | 1.3 | Activity [6]: >95% |
| CCOC(=O)c1c(CSc2ccccc2)n(Cc2ccc(F)cc2)c2cc(Br)c(O)cc12 | – | – | Non-toxic | 1.1 | IC50 [7]: > 30 µM; Activity [6]: >99% |
| CCOC(=O)c1c(CSc2ccc(C)cc2C)n(Cc2ccc(C#N)cc2)c2cc(Br)c(O)cc12 | Not active; No Significant Effect | Not active; No Significant Effect Observed | Non-toxic | – | – |
| CCOC(=O)c1c(CSc2ccc(F)cc2C)n(Cc2ccc(F)cc2)c2cc(Br)c(O)cc12 | Not active; No Significant Effect | – | Non-toxic | 12.7 | Activity [3, 12]: Not active; No Significant Effect Observed; Activity [6]: >95% |
| CC(C)N1CCN(C(=O)c2c(CSc3ccc(F)cc3)n(C)c3cc(Br)c(O)cc23)CC1 | – | – | Non-toxic | 1.7 | – |
| CCOC(=O)c1c(CSc2ccccc2)n(Cc2cccc3ccccc23)c2cc(Br)c(O)cc12 | – | Not active; No Significant Effect Observed | – | – | inhibition [5]: inactive |
| Cn1cc(NC(=O)c2c(CSc3ccccc3)n(C)c3cc(Br)c(O)cc23)cn1 | – | – | Non-toxic | 1.5 | – |
| CC(C)N1CCN(C(=O)c2c(CSc3ccccc3)n(C)c3cc(Br)c(O)cc23)CC1 | – | – | Non-toxic | 3.05 | IC50 [7]: 1.19 µM |
| CC(C)N1CCC(NC(=O)c2c(CSc3ccc(F)cc3)n(C)c3cc(Br)c(O)cc23)CC1 | – | – | – | – | inhibition [5]: inactive |
| CCOC(=O)c1c(CSc2ccccc2OC(F)(F)F)n(C)c2cc(Br)c(O)cc12 | Not active; No Significant Effect | Not active; No Significant Effect Observed | – | – | – |

| Compound | inhibition [1] | Activity [2, 12] | Activity [4] | IC50 [5] [µM] | further results |
| --- | --- | --- | --- | --- | --- |
| CCOC(=O)c1c(CSc2ccc(C)cc2C)n(Cc2ccc(C)cc2)c2cc(Br)c(O)cc12 | – | – | Non-toxic | 2.1 | IC50 [7]: > 30 µM; Activity [6]: >99% |
| CCOC(=O)c1c(CSc2ccc(F)cc2)n(Cc2ccc(C)cc2)c2cc(Br)c(O)cc12 | Not active; No Significant Effect | Not active; No Significant Effect Observed | Non-toxic | – | – |
| CCOC(=O)c1c(CSc2ccccc2)n(C)c2cc(Br)c(O)cc12 | – | – | Non-toxic | 8.4 | Activity ([3]; time 48.25 hrs): <90% |
| CCOC(=O)c1c(CSc2ccc(F)cc2)n(Cc2cccc3ccccc23)c2cc(Br)c(O)cc12 | – | – | Non-toxic | – | Activity [3, 12]: Not active; No Significant Effect Observed; Activity [6]: >90%; inhibition [5]: inactive |
| CC(C)N1CCC(NC(=O)c2c(CSc3ccccc3)n(C)c3cc(Br)c(O)cc23)CC1 | – | – | Non-toxic | 6.6 | IC50 [7]: 7.09 µM |
| CCOC(=O)c1c(CSc2ccc(C)cc2C)n(Cc2ccc(Cl)cc2)c2cc(Br)c(O)cc12 | Not active; No Significant Effect | Not active; No Significant Effect Observed | – | – | – |
| CCOC(=O)c1c(CSc2ccc(C)cc2C)n(Cc2ccc(-c3ccccc3)cc2)c2cc(Br)c(O)cc12 | Not active; No Significant Effect | Not active; No Significant Effect Observed | Non-toxic | – | – |
| CCOC(=O)c1c(CSc2ccccc2C(F)(F)F)n(C)c2cc(Br)c(O)cc12 | Not active; No Significant Effect | Not active; No Significant Effect Observed | – | – | – |
| Cc1ccc(Cn2c(CSc3c(C)cc(C)cc3C)c(C(=O)NC3CCN(C)CC3)c3cc(O)c(Br)cc32)cc1 | – | – | Non-toxic | – | – |
| Cn1c(CSc2ccc(F)cc2)c(C(=O)NC(C)(C)C)c2cc(O)c(Br)cc21 | – | – | – | – | inhibition [5]: inactive |
| CCOC(=O)c1c(CSc2ccccc2OC)n(C)c2cc(Br)c(O)c(CN(C)C)c12 | Not active; No Significant Effect | Not active; No Significant Effect Observed | – | – | – |
| Cn1c(CSc2ccc(F)cc2F)c(C(=O)NC(C)(C)C)c2cc(O)c(Br)cc21 | – | – | Non-toxic | 4.6 | – |
| CCOC(=O)c1c(CSc2ccc(F)cc2F)n(C)c2cc(Br)c(O)cc12 | inactive | Not active; No Significant Effect Observed | – | – | inhibition [5]: inactive |
| CCOC(=O)c1c(CSc2c(C)cc(C)cc2C)n(C)c2cc(Br)c(O)cc12 | – | Not determined; No Significant Effect Observed | Non-toxic | 8.75 | – |
| CCOC(=O)c1c(CSc2ccc(F)cc2)n(C)c2cc(Br)c(O)c(CN(C)C)c12 | Not active; No Significant Effect | – | Non-toxic | – | – |
| CCOC(=O)c1c(CSc2c(C)cc(C)cc2C)n(Cc2cccc3ccccc23)c2cc(Br)c(O)cc12 | – | Not active; No Significant Effect Observed | Non-toxic | – | inhibition [5]: inactive |
| CCC(CC)COC(=O)[C@H](C)N[P@](=O)(OC[C@H]1O[C@@](C#N)(c2ccc3c(N)ncnn23)[C@H](O)[C@@H]1O)Oc1ccccc1 | – | – | – | 0.76 | – |
| CCOC(=O)c1c(CSc2ccc(C)cc2C)n(Cc2ccc(F)cc2)c2cc(Br)c(O)cc12 | Not active; No Significant Effect | Not active; No Significant Effect Observed | Non-toxic | – | – |
| CCOC(=O)c1c(CSc2ccccc2C(F)(F)F)n(C)c2cc(Br)c(O)c(CN(C)C)c12 | Not active; No Significant Effect | Not active; No Significant Effect Observed | – | – | – |
| CCOC(=O)c1c(CSc2c(C)cc(C)cc2C)n(Cc2ccc(C)cc2)c2cc(Br)c(O)c(CN(C)C)c12 | – | Not determined; No Significant Effect Observed | Non-toxic | 10 | IC50 [7]: 3.85 µM |
| CCOC(=O)c1c(CSc2ccc(F)cc2C)n(Cc2cccc3ccccc23)c2cc(Br)c(O)cc12 | – | Not active; No Significant Effect Observed | Non-toxic | – | inhibition [5]: inactive |
| CCOC(=O)c1c(CSc2ccccc2)[nH]c2cc(Br)c(O)cc12 | Not active; No Significant Effect | Not active; No Significant Effect Observed | Non-toxic | – | – |
